The values below are quoted from earlier work in patent US12171237B2, “Insect repelling compositions and methods of manufacture thereof” (priority 2019, dated 2024).

The test system of one data set is female Ae. albopictus. The following applies: spatial repellent, 0.25 μg·cm^−2, after 48 h exposure.
Data set [1] has as its system Cx. pipiens pallens, Cx. pipiens quinquefasciatus.
Another data set has as its system female Ae. aegypti. The following applies: Human-bait assay.
For the next data set, the system named is Mosquito. Conditions: d-α-pinene.
For a further data set, the system named is Ae. albopictus. Conditions: 1 h, 1.92 μg·cm^−2.
The subject of a further data set is Ae. aegypti. Conditions: 1 h, 1.92 μg·cm^−2.
Data set [2] has as its system female Cx. pipiens pallens.

Molecules are shown by their SMILES. “Also recorded” adds a separate entry of the source. Where two headings read alike, the source gives them in different places.

On to `CC(C)=CCC/C(C)=C/CO` [Geraniol], for which, in the data set on female Ae. albopictus, the “(reversible) inhibition of host-seeking” value is reported as “spatial repellent: 0.25 μg · cm^−2 ca. 100% (reversible)”.

As for `CC(C)=CCC/C(C)=C/C=O` [Geranial], the “blood-sucking by mosquitoes reduced by” value in data set [1] (at 0.2 mg·cm^−2, after 1 h) is given as 10%; in data set [1] (at 0.2 mg·cm^−2, after 2 h), 15%; in data set [1] (at 0.2 mg·cm^−2, after 3 h), 18%.

Take `CC(C)=CCCC(C)CCO` (centres unmarked) [Citronellol]: the “Repellency (in words)” value in the data set on female An. gambiae is recorded as “repellent component; also recorded: feeding deterrent/repellent, spatial repellent/inhibitor”.

With `CCCCCCCC/C=C\CCCCCCCC(=O)O` [Oleic acid], the repellency with female Ae. aegypti (0.4 mg·cm^−2, after 1 h) is on record as 0.4 mg · cm^−2 = 52% repellency after 1 h^a.

Take `CC1=CCC2CC1C2(C)C` (stereo not drawn) [α-Pinene]: the protection entry in the data set with Mosquito is reported as “d-α-pinene , 2 h protection”.

Turning to `CC1=CC=C(C(C)C)CC1` [α-Terpinene], the “repellency (‡)” value in the data set on Ae. albopictus was 55%. Besides, the repellency entry with female Ae. aegypti (1.4 mg·cm^−2) is “^a1.4 mg · cm^−2 = 15% repellency”. For the same compound, the “repellency (†)” value in the data set on Ae. aegypti was 68%.

Take `C=CCc1ccc(O)c(OC)c1` [Eugenol]: in data set [2], the “Repellency (in words)” value is on record as “high repellency”.

Consider `CC1=CCC(C(C)C)=CC1` [γ-Terpinene], for which the “repellency (‡)” value in the data set on Ae. albopictus is on record as 72%. Further, in the data set with Ae. aegypti, the “repellency (†)” value is recorded as 60%.

In the case of `C=CC(C)(O)CCC=C(C)C` (racemic) [Linalool], in the data set on female Ae. aegypti (1.4 mg·cm^−2), the repellency entry is reported as “^a1.4 mg (±)-linalool · cm^−2 = 67% repellency”.

As for `CC1=CCC(O)(C(C)C)CC1` (centres unmarked) [Terpinen-4-ol], the “repellency (‡)” value with Ae. albopictus was 85%. Also, the repellency result with female Ae. aegypti (1.4 mg·cm^−2) is given as “^a1.4 mg · cm^−2 = 83% repellency”. Also, the “repellency (†)” value in the data set with Ae. aegypti was 92%.
